Assay results as given in patent US20040171691A1, “Propofol with cysteine” (Transform Pharmaceuticals, Inc., priority 2002, published 2004).

Test system: microorganisms
Test: Antimicrobial effectiveness, overall conclusion over the four USP test organisms
Type: cell-based
Details: after adventitious, extrinsic contamination
Excerpt: Tables 2 through 5 compare the antimicrobial effectiveness of the cysteinate HCl formulation with that of Diprivan® and generic propofol formulation, as well as unpreserved Intralipid®.

## Cl.N[C@@H](CS)C(=O)O [cysteine/cysteinate HCl, Cysteine HCl]
  time for which significant growth of microorganisms is prevented: at least 24 hours
